These results are taken from patent publication US6030823A, “D-aminoacylase” (Daicel Chemical Industries, Ltd., priority 1998, dated 2000).

SMILES strings stand for the structures.

The first experiment concerns Sebekia benihana IFO14309. Kind of experiment: Induction of D-aminoacylase, experiment 1 (PY liquid medium, 0.10% inducer). The format is cell-based. To be noted: 20 mM N-acetyl-D-methionine, 30° C., 20 min. The method, then: First, Sebekia benihana IFO14309 was cultured with shaking for 74 hours in test tubes, each containing 8.0 ml of PY liquid medium (0.2% glycerol, 2.0% yeast extract, 2.0% polypeptone, pH 7.3) supplemented with 0.10% DL-leucine, 0.10% N-acetyl-DL-leucine, 0.10% DL-methionine, 0.10% N-acetyl-DL-methionine, DL-valine, or 0.10% N-acetyl-DL-valine as inducers (experiment 1).
(§1) From the culture broth obtained in experiments 1, 2, and 3, the cells were collected by centrifugation at 8000 rpm (7000×g) for 20 min with a refrigerated centrifuge (Hitachi Koki Co., Ltd.). The collected cells were washed with 50 mM Tris-HCl buffer (pH 7.5), collected again by centrifugation using the same centrifuge, then stored at -20° C.
(§2) The stored cells were suspended in 20 ml of 50 mM Tris-HCl buffer (pH 7.5) and were disrupted by sonication at 200 W for 15 min. The lysate was centrifuged at 15,000 rpm for 30 min with the above centrifuge, and the supernatant was obtained as a crude enzyme solution.
(§3) The enzymatic reaction was performed in 1.0 ml of a reaction system containing 20 mM N-acetyl-D-methionine, 50 mM Tris-HCl buffer (pH 7.5), 1 mM CoCl2, and 100 μl of the enzyme solution at 30° C. for 20 min (experiment 1), 10 min (experiment 2), and 5 min (experiment 3). The reaction was stopped by adding a TCA solution.
Take `CC(C)C(N)C(=O)O` (racemic) [DL-Valine, DL-valine]: the Activity is 0.429 U/ml of broth and the Specific activity turned out to be 0.133 U/mg.
Take `CC(=O)NC(C(=O)O)C(C)C` (racemic) [N-Ac-DL-Valine, N-acetyl-DL-valine]: the Activity is recorded as 0.114 U/ml of broth and the Specific activity was found to be 0.0341 U/mg.

For the next experiment, the system named is D-aminoacylase derived from Sebekia benihana IFO14309. Briefly: Substrate specificity of the aminoacylase. The following applies: 20 mM substrate, 50 mM Tris-HCl pH 7.5, 30° C., 5 min. The format is biochemical. The method, then: The substrate specificity of the aminoacylase was examined using N-acetyl-D-methionine, N-acetyl-D-alanine, N-acetyl-D-aspartic acid, N-acetyl-D-leucine, N-acetyl-D-phenylalanine, N-acetyl-D-tryptophan, N-acetyl-D-valine, N-acetyl-L-leucine, N-acetyl-L-methionine, and N-acetyl-L-valine as substrates. The enzyme activity was assayed as follows. A 0.050-ml aliquot of an enzyme solution was added to 0.950 ml of 20 mM N-acetyl-D(or L)-amino acid in 50 mM Tris-HCl buffer (pH 7.5) and incubated at 30° C. for 5 min. The reaction was then stopped by adding 0.50 ml of a TCA solution to the reaction mixture. The relative activity is shown in Table 5, taking the activity for N-acetyl-L-methionine as 100%.
`CC(=O)N[C@H](C)C(=O)O` [N-Ac-D-Ala, N-acetyl-D-alanine]: the Relative activity is listed as 1.1%.
On to `CC(=O)N[C@H](CC(N)=O)C(=O)O` [N-Ac-D-Asn, N-acetyl-D-asparagine], for which the Relative activity worked out at 1.4%.
On the same count and under the same terms, under `CC(=O)N[C@H](CC(C)C)C(=O)O` [N-Ac-D-Leu, N-acetyl-D-leucine] stands 255%; under `CSCC[C@@H](NC(C)=O)C(=O)O` [N-Ac-D-Met, N-acetyl-D-methionine], 100%; under `CC(=O)N[C@H](Cc1ccccc1)C(=O)O` [N-Ac-D-Phe, N-acetyl-D-phenylalanine], 100%.
Take `CC(=O)N[C@H](Cc1c[nH]c2ccccc12)C(=O)O` [N-Ac-D-Trp, N-acetyl-D-tryptophan]: the Relative activity amounted to 64%.
Same read-out and setting: to `CC(=O)N[C@@H](C(=O)O)C(C)C` [N-Ac-D-Val, N-acetyl-D-valine] belongs 33%; to `CC(=O)N[C@@H](CC(C)C)C(=O)O` [N-Ac-L-Leu, N-acetyl-L-leucine], 0%; to `CSCC[C@H](NC(C)=O)C(=O)O` [N-Ac-L-Met, N-acetyl-L-methionine], 0%.
With `CC(=O)N[C@H](C(=O)O)C(C)C` [N-Ac-L-Val, N-acetyl-L-valine], the Relative activity came to 0%.

Another experiment has as its system Sebekia benihana IFO14309. Kind of experiment: Induction of D-aminoacylase, experiment 2 (seed culture, PY liquid medium, 0.10% inducer). The format is cell-based. To be noted: 20 mM N-acetyl-D-methionine, 30° C., 10 min. The method, then:
Second, a seed culture was prepared by incubating the strain in test tubes, each containing 5.0 ml of PY liquid medium for 71 hours. Then, 0.4 ml of the seed culture was inoculated with a 2-ml Komagome pipette into test tubes, each containing 8.0 ml of PY liquid medium supplemented with 0.10% DL-glutamine, 0.10% DL-histidine, 0.10% DL-isoleucine, 0.10% DL-phenylalanine, 0.10% proline, 0.10% DL-threonine, 0.10% DL-tryptophan, or 0.10% DL-valine as inducers, and cultivated for 74 hours with shaking (experiment 2).
as §1, §2, §3
Consider `CC(C)C(N)C(=O)O` (racemic) [DL-Valine, DL-valine], for which the Activity is recorded as 0.239 U/ml of broth and the Specific activity came out at 0.0920 U/mg.
